{
  "source": "patent US20230303483A1",
  "about": "“USE OF STROBILURIN TYPE COMPOUNDS FOR COMBATING PHYTOPATHOGENIC FUNGI CONTAINING AN AMINO ACID SUBSTITUTION F129L IN THE MITOCHONDRIAL CYTOCHROME B PROTEIN CONFERRING RESISTANCE TO QO […]” (BASF SE, priority 2020, published 2023)",
  "key": {"[1]": {"tested_on": "Phakopsora pachyrhizi (strain containing the amino acid substitution F129L in the mitochondrial cytochrome b protein)", "experiment": "Use example 1: protective control of soybean rust on soybeans (PHAKPA P2), inoculation 2 days after spraying", "type": "in vivo", "conditions": "% diseased leaf area on soybean, 16 ppm spray, inoculation 2 days after treatment, untreated controls usually >85 %", "protocol": "(§1) The compound was dissolved in a mixture of acetone and/or dimethylsulfoxide and the wetting agent/emulsifier Wettol, which is based on ethoxylated alkylphenoles, in a ratio (volume) solvent-emulsifier of 99 to 1 to give a total volume of 5 ml. Subsequently, water was added to total volume of 100 ml. This stock solution was then diluted with the described solvent-emulsifier-water mixture to the final concentration given in the table below.\nUse example 1. Protective control of soybean rust on soybeans caused by Phakopsora pachyrhizi (PHAKPA P2)\n(§2) Leaves of potted soybean seedlings were sprayed to run-off with the previously described spray solution, containing the concentration of active ingredient or their mixture as described below. The plants were allowed to air-dry. The trial plants were cultivated for 2 days in a greenhouse chamber at 23-27° C. and a relative humidity between 60 and 80 %. Then the plants were inoculated with spores of Phakopsora pachyrhizi. The strain used contains the amino acid substitution F129L in the mitochondrial cytochrome b protein conferring resistance to Qo inhibitors. To ensure the success the artificial inoculation, the plants were transferred to a humid chamber with a relative humidity of about 95 % and 20 to 24° C. for 24 hr. The trial plants were cultivated for up to 14 days in a greenhouse chamber at 23 to 27° C. and a relative humidity between 60 and 80 %. The extent of fungal attack on the leaves was visually assessed as % diseased leaf area, the disease level of untreated controls was usually higher than 85 %.\n(§3) All test results below are given for the control of phytopathogenic fungi containing the amino acid substitution F129L in the mitochondrial cytochrome b protein conferring resistance to Qo inhibitors."}, "[2]": {"tested_on": "Phakopsora pachyrhizi (strain containing the amino acid substitution F129L in the mitochondrial cytochrome b protein)", "experiment": "Use example 2: protective control of soybean rust on soybeans (PHAKPA P6), inoculation six days after spraying", "type": "in vivo", "conditions": "% diseased leaf area on soybean, 16 ppm spray, inoculation six days after treatment, untreated controls usually >85 %", "protocol": "as §1\nUse example 2. Protective control of soybean rust on soybeans caused by Phakopsora pachyrhizi (PHAKPA P6)\nas §2, with “active ingredient as described” for “active ingredient or their mixture as described”, “cultivated for six days in” for “cultivated for 2 days in”, “% and 23 to 27°” for “% and 20 to 24°”, “23 to 27° C. for” for “20 to 24° C. for”\nas §3"}},
  "data": [
    {"smiles": "CO/N=C(/C(=O)OC)c1ccccc1CO/N=C(\\C)C#Cc1ccc(Cl)cc1C1CC1", "note": "[Example 91]", "values": [
      {"measurement": "PHAKPA Disease level (%) P2 at 16 ppm", "setting": "[1]", "result": 53, "unit": "%"},
      {"measurement": "PHAKPA Disease level (%) P6 at 16 ppm", "setting": "[2]", "result": 43, "unit": "%"}
    ]},
    {"smiles": "CNC(=O)/C(=N/OC)c1cccc(C)c1CO/N=C(\\C)C#Cc1ccccc1", "note": "[Example 16, (2E)-2-Methoxyimino-N-methyl-2-[3-methyl-2-[[(E)-(1-methyl-3-phenyl-prop-2-ynylidene)amino]oxymethyl]phenyl]acetamide]", "values": [
      {"measurement": "PHAKPA Disease level (%) P2 at 16 ppm", "setting": "[1]", "result": 0, "unit": "%"},
      {"measurement": "PHAKPA Disease level (%) P6 at 16 ppm", "setting": "[2]", "result": 0, "unit": "%"}
    ]},
    {"smiles": "CNC(=O)/C(=N/OC)c1ccccc1CO/N=C(\\C)C#Cc1ccc(OC(F)(F)F)cc1C1CC1", "note": "[Example 120]", "values": [
      {"measurement": "PHAKPA Disease level (%) P2 at 16 ppm", "setting": "[1]", "result": 15, "unit": "%"},
      {"measurement": "PHAKPA Disease level (%) P6 at 16 ppm", "setting": "[2]", "result": 22, "unit": "%"}
    ]},
    {"smiles": "CO/N=C(/C(=O)OC)c1ccccc1CO/N=C(\\C)C#Cc1ccc(Br)cc1", "note": "[Example 54]", "values": [
      {"measurement": "PHAKPA Disease level (%) P2 at 16 ppm", "setting": "[1]", "result": 22, "unit": "%"},
      {"measurement": "PHAKPA Disease level (%) P6 at 16 ppm", "setting": "[2]", "result": 25, "unit": "%"}
    ]},
    {"smiles": "CNC(=O)/C(=N/OC)c1ccccc1CO/N=C(\\C)C#Cc1cccc(OC(F)(F)F)c1", "note": "[Example 53]", "values": [
      {"measurement": "PHAKPA Disease level (%) P2 at 16 ppm", "setting": "[1]", "result": 0, "unit": "%"},
      {"measurement": "PHAKPA Disease level (%) P6 at 16 ppm", "setting": "[2]", "result": 0, "unit": "%"}
    ]},
    {"smiles": "CNC(=O)/C(=N/OC)c1cccc(C)c1CO/N=C(\\C)C#Cc1ccc(Cl)cc1", "note": "[Example 31]", "values": [
      {"measurement": "PHAKPA Disease level (%) P2 at 16 ppm", "setting": "[1]", "result": 0, "unit": "%"},
      {"measurement": "PHAKPA Disease level (%) P6 at 16 ppm", "setting": "[2]", "result": 5, "unit": "%"}
    ]},
    {"smiles": "CO/N=C(/C(=O)OC)c1cccc(C)c1CO/N=C(\\C)C#Cc1ccc(OC(F)(F)F)cc1", "note": "[Example 22, methyl (2E)-2-methoxyimino-2-[3-methyl-2-[[(E)-[1-methyl-3-[4-(trifluoromethoxy)-phenyl]prop-2-ynylidene]amino]oxymethyl]phenyl]acetate]", "values": [
      {"measurement": "PHAKPA Disease level (%) P2 at 16 ppm", "setting": "[1]", "result": 93, "unit": "%"},
      {"measurement": "PHAKPA Disease level (%) P6 at 16 ppm", "setting": "[2]", "result": 97, "unit": "%"}
    ]},
    {"smiles": "CO/N=C(/C(=O)OC)c1ccccc1CO/N=C(\\C)C#Cc1cccc(C)c1", "note": "[Example 43]", "values": [
      {"measurement": "PHAKPA Disease level (%) P2 at 16 ppm", "setting": "[1]", "result": 40, "unit": "%"},
      {"measurement": "PHAKPA Disease level (%) P6 at 16 ppm", "setting": "[2]", "result": 27, "unit": "%"}
    ]},
    {"smiles": "CO/N=C(/C(=O)OC)c1cccc(C)c1CO/N=C(\\C)C#Cc1ccc(F)cc1C(=O)OC", "note": "[Example 125]", "values": [
      {"measurement": "PHAKPA Disease level (%) P2 at 16 ppm", "setting": "[1]", "result": 17, "unit": "%"},
      {"measurement": "PHAKPA Disease level (%) P6 at 16 ppm", "setting": "[2]", "result": 45, "unit": "%"}
    ]},
    {"smiles": "CO/N=C(/C(=O)OC)c1cccc(C)c1CO/N=C(\\C)C#Cc1cccc(Cl)c1", "note": "[Example 72]", "values": [
      {"measurement": "PHAKPA Disease level (%) P2 at 16 ppm", "setting": "[1]", "result": 7, "unit": "%"},
      {"measurement": "PHAKPA Disease level (%) P6 at 16 ppm", "setting": "[2]", "result": 8, "unit": "%"}
    ]},
    {"smiles": "CNC(=O)/C(=N/OC)c1ccccc1CO/N=C(\\C)C#Cc1ccccc1", "note": "[Example 2, (2E)-2-Methoxyimino-N-methyl-2-[2-[[(E)-(1-methyl-3-phenyl-prop-2-ynylidene)-amino]oxymethyl]phenyl]acetamide]", "values": [
      {"measurement": "PHAKPA Disease level (%) P2 at 16 ppm", "setting": "[1]", "result": 97, "unit": "%"},
      {"measurement": "PHAKPA Disease level (%) P6 at 16 ppm", "setting": "[2]", "result": 90, "unit": "%"}
    ]},
    {"smiles": "CNC(=O)/C(=N/OC)c1ccccc1CO/N=C(\\C)C#Cc1cccc(C(F)(F)F)c1", "note": "[Example 44]", "values": [
      {"measurement": "PHAKPA Disease level (%) P2 at 16 ppm", "setting": "[1]", "result": 1, "unit": "%"},
      {"measurement": "PHAKPA Disease level (%) P6 at 16 ppm", "setting": "[2]", "result": 5, "unit": "%"}
    ]},
    {"smiles": "CO/N=C(/C(=O)OC)c1cccc(C)c1CO/N=C(\\C)C#Cc1ccc(F)c(C(=O)OC)c1", "note": "[Example 123]", "values": [
      {"measurement": "PHAKPA Disease level (%) P2 at 16 ppm", "setting": "[1]", "result": 43, "unit": "%"},
      {"measurement": "PHAKPA Disease level (%) P6 at 16 ppm", "setting": "[2]", "result": 37, "unit": "%"}
    ]},
    {"smiles": "CNC(=O)/C(=N/OC)c1ccccc1CO/N=C(\\C)C#Cc1ccc(Cl)cc1-c1ccc(F)cc1", "note": "[Example 115]", "values": [
      {"measurement": "PHAKPA Disease level (%) P2 at 16 ppm", "setting": "[1]", "result": 2, "unit": "%"},
      {"measurement": "PHAKPA Disease level (%) P6 at 16 ppm", "setting": "[2]", "result": 1, "unit": "%"}
    ]},
    {"smiles": "CO/N=C(/C(=O)OC)c1cccc(C)c1CO/N=C(\\C)C#Cc1ccc(Cl)cc1", "note": "[Example 32]", "values": [
      {"measurement": "PHAKPA Disease level (%) P2 at 16 ppm", "setting": "[1]", "result": 12, "unit": "%"},
      {"measurement": "PHAKPA Disease level (%) P6 at 16 ppm", "setting": "[2]", "result": 35, "unit": "%"}
    ]},
    {"smiles": "CNC(=O)/C(=N/OC)c1ccccc1CO/N=C(\\C)C#Cc1ccc2c(c1)OC(F)(F)O2", "note": "[Example 84]", "values": [
      {"measurement": "PHAKPA Disease level (%) P2 at 16 ppm", "setting": "[1]", "result": 77, "unit": "%"},
      {"measurement": "PHAKPA Disease level (%) P6 at 16 ppm", "setting": "[2]", "result": 67, "unit": "%"}
    ]},
    {"smiles": "CNC(=O)/C(=N/OC)c1cccc(C)c1CO/N=C(\\C)C#Cc1ccc(Br)cc1", "note": "[Example 59]", "values": [
      {"measurement": "PHAKPA Disease level (%) P2 at 16 ppm", "setting": "[1]", "result": 13, "unit": "%"},
      {"measurement": "PHAKPA Disease level (%) P6 at 16 ppm", "setting": "[2]", "result": 28, "unit": "%"}
    ]},
    {"smiles": "CNC(=O)/C(=N/OC)c1ccccc1CO/N=C(\\C)C#Cc1cccc(Br)c1", "note": "[Example 5]", "values": [
      {"measurement": "PHAKPA Disease level (%) P2 at 16 ppm", "setting": "[1]", "result": 1, "unit": "%"},
      {"measurement": "PHAKPA Disease level (%) P6 at 16 ppm", "setting": "[2]", "result": 7, "unit": "%"}
    ]},
    {"smiles": "CNC(=O)/C(=N/OC)c1ccccc1CO/N=C(\\C)C#Cc1ccc(C2CC2)cc1", "note": "[Example 92]", "values": [
      {"measurement": "PHAKPA Disease level (%) P2 at 16 ppm", "setting": "[1]", "result": 60, "unit": "%"},
      {"measurement": "PHAKPA Disease level (%) P6 at 16 ppm", "setting": "[2]", "result": 57, "unit": "%"}
    ]}
  ]
}
